This is an account of results in US20070134261A1, “Effectors of innate immunity” (priority 2001, published 2007).

Each structure is given as a SMILES string. In brackets after ≈: the same amount, converted by molar mass. Where two headings read alike, the source gives them in different places. Residues, ends and D or L forms follow the SMILES beside them.

Series [1] relates to A549 human epithelial cells. The series can be described thus: Induction of chemokines (IL-8, MCP-1) in A549 cells (ELISA). It is filed as cell-based. To be noted: peptide 10 ug/ml, 24 hr. The protocol:
The murine macrophage cell line RAW 264.7, THP-1 cells (human monocytes), a human epithelial cell line (A549), human bronchial epithelial cells (16HBEo14), and whole human blood were used. HBE cells were grown in MEM with Earle's. THP-1 cells were grown and maintained in RPMI 1640 medium. The RAW and A549 cell lines were maintained in DMEM supplemented with 10% fetal calf serum. […] DMEM was aspirated from cells grown overnight and replaced with fresh medium. After incubation of the cells with peptide, the release of chemokines into the culture supernatant was determined by ELISA (R&D Systems, Minneapolis, Minn.).

Series [2] is classed as cell-based.
Series [3] relates to Salmonella. The series can be described thus: Salmonella infection in BALB/c mice (viable bacteria in spleen). Format: in vivo, mouse. To be noted: Table 49; peptide 200 μg IP, 24 h; Control 2.70 ± […] 10^5. As for the experimental part:
(§1) BALB/c mice were given 1×10^5 Salmonella and cationic peptide (200 μg) by intraperitoneal injection. The mice were monitored for 24 hours at which point they were euthanized, the spleen removed, homogenized and resuspended in PBS and plated on Luria Broth agar plates with Kanamycin (50 μg/ml). The plates were incubated overnight at 37° C. and counted for viable bacteria (Table 49 and 50). CD-1 mice were given 1×10^8 S. aureus in 5% porcine mucin and cationic peptide (200 μg) by intraperitoneal injection (Table 51). The mice were monitored for 3 days at which point they were euthanized, blood removed and plated for viable counts. CD-1 male mice were given 5.8×10^6 CFU EHEC bacteria and cationic peptide (200 μg) by intraperitoneal (IP) injection and monitored for 3 days (Table 52). […] Many of the cationic peptides were shown not to be directly antimicrobial as tested by the Minimum Inhibitory Concentration (MIC) assay (Table 54).

The test system of series [4] is RAW 264.7 mouse macrophage cells. Format: cell-based. As to conditions: Peptide 20 μg/ml; 100 ng/ml E. coli 0111:B4 LPS, 6 h.
Series [5] has as its system CD-1 mice. The series can be described thus: Lethal endotoxemia in galactosamine-sensitized CD-1 mice. To be noted: 2 μg LPS; peptide 200 μg/mouse = 8 mg/kg IP 15 min after LPS; 48 hours; control 0. Format: in vivo.
The test system of series [6] is BALB/c mice. The series can be described thus: Lethal endotoxemia in galactosamine-sensitized BALB/c mice. Format: in vivo. As to conditions: 2 μg LPS; peptide 200 μg/mouse = 8 mg/kg IP 15 min after LPS; 48 hours; no peptide 10.
Series [7] relates to HBE cells. In words: WST-1 assay (cell viability). It is filed as cell-based, human. The method in brief:
(§2)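 Both read-outs were colorimetric at OD490 on HBE cells after 24 h with 100 μg of each peptide. The WST-1 assay reported viability through mitochondrial dehydrogenase cleavage of the tetrazolium salt. The LDH assay tested the removed supernatant for enzyme leaked from membrane-damaged cells.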
Background: Tetrazolium dyes change colour on reduction, which living cells bring about.

In series [8] the test system is S. aureus. In words: Murine S. aureus infection model (CD-1 mice). Format: in vivo, mouse. To be noted: peptide 200 μg IP; for CFU/ml (blood): 3 days, No Peptide 7.61 ± 1.7 × 10^3; for # Mice Survived (3 days)/Total mice in group: No Peptide 6/8. The protocol: as §1
Series [9] concerns human bronchial epithelial cells (HBE). The series can be described thus: LDH release assay (Cytotoxicity Detection Kit). Format: cell-based. As to conditions: 100 μg/ml, 24 hours; no peptide control 1.0 ± 0.05. The method in brief:
as §2
On the technique in general: LDH leaks from cells whose membrane has failed.

On to `CSCC[C@H](NC(=O)[C@H](CO)NC(=O)[C@@H](NC(=O)[C@H](CCCCN)NC(=O)[C@H](Cc1ccccc1)NC(=O)[C@H](CS)NC(=O)[C@H](CO)NC(=O)[C@H](CCCNC(=N)N)NC(=O)[C@@H](N)CCCCN)C(C)C)C(=O)N[C@@H](CCCNC(=N)N)C(=O)NCC(=O)N[C@H](C(=O)N[C@@H](CO)C(=O)N[C@@H](CCCNC(=N)N)C(=O)N[C@@H](CCCNC(=N)N)C(=O)N[C@@H](CCCNC(=N)N)C(=O)N[C@@H](CS)C(=O)N[C@@H](CCCCN)C(=O)O)C(C)C` [SEQ ID NO: 27] (H-KRSCFKVSMRGVSRRRCK-OH; N-terminus and C-terminus assumed), for which the IL-8 in [1] came to 0.346 ng/mL. In addition, in series [2] (24 h), the “MIC, C. rhod.” value was found to be 2 µg/mL (≈ 0.915 µM); the “MIC, E. coli” value was 8 µg/mL (≈ 3.66 µM); the “MIC, EHEC” value turned out to be 4 µg/mL (≈ 1.83 µM); the “MIC, P. aerug.” value was 64 µg/mL (≈ 29.3 µM). In [2] (24 h), the “MIC, S. aureus” value amounted to 64 µg/mL (≈ 29.3 µM) and the “MIC, S. typhim.” value stood at 16 µg/mL (≈ 7.32 µM). In [3], the “Viable Bacteria in the Spleen” value is 1.01 ± 0.26 × 10^5 CFU/ml. Moreover, the “Inhibition of TNF-α” value in series [4] is recorded as 51.1 ± 2.8%. Moreover, in series [5], the Survival is listed as 20%. Also, the Survival in series [6] worked out at 50%. Further, the “OD490 nm (WST-1 cell viability)” value in [7] (100 μg/ml, 24 hours, no peptide control 1.63 ± 0.16) came out at 1.63 ± 0.03 OD490 nm. In series [8], the “CFU/ml (blood)” value is given as 2.25 ± 0.1 × 10^2 CFU/ml and the “# Mice Survived (3 days)/Total mice in group” value is given as 3/4. The “LDH Release (OD490 nm)” value in [9] was found to be 0.91 ± 0.04 OD490 nm.

In series [1], `CC[C@H](C)[C@H](NC(=O)[C@@H]1CCCN1C(=O)[C@H](CS)NC(=O)[C@H](CCCNC(=N)N)NC(=O)[C@@H](N)CC(C)C)C(=O)N[C@@H](C)C(=O)N1CCC[C@H]1C(=O)N[C@H](C(=O)N[C@H](C(=O)N1CCC[C@H]1C(=O)N[C@H](C(=O)N[C@@H](CS)C(=O)N[C@@H](CCCCN)C(=O)N[C@@H](CCCCN)C(=O)O)C(C)C)[C@@H](C)CC)C(C)C` [SEQ ID NO: 6] (H-LRCPIAPVIPVCKK-OH; N-terminus and C-terminus assumed) had an IL-8 of 0.181 ng/mL. In [2] (24 h), the “MIC, C. rhod.” value turned out to be 64 µg/mL (≈ 41.6 µM); the “MIC, E. coli” value worked out at 128 µg/mL (≈ 83.3 µM); the “MIC, EHEC” value worked out at 64 µg/mL (≈ 41.6 µM); the “MIC, S. typhim.” value came out at 128 µg/mL (≈ 83.3 µM). In [2] (Staphylococcus aureus, overnight, 96-well plate), the “MIC, S. aureus” value was “>”. Moreover, in [3], the “Viable Bacteria in the Spleen” value is 2.57 ± 0.72 × 10^4 CFU/ml. Moreover, in [4], the “Inhibition of TNF-α” value worked out at 59.8 ± 1.2%. For the same molecule, the Survival in series [5] is on record as 40%. Further, in series [6], the Survival is recorded as 17%. Also, the “OD490 nm (WST-1 cell viability)” value in [7] is given as 1.81 ± 0.05 OD490 nm. Besides, in series [8], the “CFU/ml (blood)” value is 1.98 ± 0.05 × 10^2 CFU/ml and the “# Mice Survived (3 days)/Total mice in group” value is 3/4. Also, the “LDH Release (OD490 nm)” value in [9] stood at 0.97 ± 0.02 OD490 nm.

On to `CC[C@H](C)[C@H](N)C(=O)N[C@@H](CC(C)C)C(=O)N1CCC[C@H]1C(=O)N[C@@H](Cc1c[nH]c2ccccc12)C(=O)N[C@@H](CCCCN)C(=O)N[C@@H](Cc1c[nH]c2ccccc12)C(=O)N1CCC[C@H]1C(=O)N[C@@H](Cc1c[nH]c2ccccc12)C(=O)N[C@@H](Cc1c[nH]c2ccccc12)C(=O)N1CCC[C@H]1C(=O)N[C@@H](Cc1c[nH]c2ccccc12)C(=O)N[C@@H](CCCNC(=N)N)C(=O)N[C@@H](CCCNC(=N)N)C(N)=O` [SEQ ID NO: 2], for which, in series [2] (24 h), the “MIC, C. rhod.” value was found to be 64 µg/mL (≈ 33.6 µM); the “MIC, E. coli” value worked out at 4 µg/mL (≈ 2.1 µM); the “MIC, P. aerug.” value was 32 µg/mL (≈ 16.8 µM); the “MIC, S. aureus” value worked out at 16 µg/mL (≈ 8.39 µM). Further, the “MIC, S. typhim.” value in series [2] (24 h) stood at 16 µg/mL (≈ 8.39 µM).
